Assay results: patent US20260286370A1, “METHODS FOR RAPID AGROBACTERIUM-MEDIATED SUNFLOWER STABLE TRANSFORMATION” (SYNGENTA CROP PROTECTION AG, priority 2023, published 2026)

What was measured:
Assay type in all cases: in vivo, Helianthus annuus
[1] = tested on: sunflower explants; assay: Transformation efficiency with different cytokinin in germination medium (Protocol V2); conditions: variety F75400; for No. resistant shoot: hormone in germination medium: TDZ 4 mg/L (68 explants), BAP 5 mg/L (71 explants); for # of Resistant plants with GFP / Rate of resistant plants with GFP (%) / Resistant shoot rate: hormone in germination medium: TDZ 4 mg/L, BAP 5 mg/L
Excerpt: Adding different cytokinin into germination medium can improve shoot induction rate and TF. The resistant plantlets were generated with normal shoots and roots, which was further confirmed by visualizing green fluorescent protein expression (GFP). (Experiment alias: SF-52-SP-24545, SF-66-SP-24545, SF-81-SP-24545; variety: F75400).

[2] = tested on: sunflower explants from 1-day imbibed seeds; assay: Transformation efficiency with different concentration of TDZ in infection medium (Protocol V1); conditions: for # of TaqMan Positive Events / TF: variety F75400, vector 24545
Procedure: Agrobacterium from storage at −80° C. were streaked to YP (Yeast Peptone) medium with 100 mg/L spectinomycin and 50 mg/L kanamycin at least 3 days before infection. They were re-streaked to a new YP medium plate with some concentrations of spectinomycin and kanamycin 1 day before infection. The Agrobacterium were then collected and re-suspended in infection liquid medium (containing MS basal salts and B5 vitamins, sucrose 20 g/L, glucose 10 g/L, MES, 4 g/L, zeatin riboside 2 mg/L, 3-10 mg/L TDZ, 80 mg/L acetosyringone (AS), 150 mg/L dithiothreitol (DTT), pH=5.5). The concentration of the Agrobacterium was adjusted until OD660=0.6.
One cotyledon of the split germinated seeds was removed with a scalpel to expose the shoot apex with its two primary leaves. The two primary leaves were completely removed to expose the apical meristem and the apical region was gently wounded with the sharp end of a scalpel. The resultant explants were then placed in an Agrobacterium suspension and add 1/1000 10% F68; the suspension was then placed under vacuum at 800-900-mbar for 5-30 min followed by sonication at 45 kHz for 30-60s with gentle shaking. The explants were inoculated for 2-3 hours with the Agrobacterium with 50-80 rpm shaking.
After inoculation in (3), the Agrobacterium suspension was removed, and the explants were then placed onto a piece of filter paper in a petri dish which prewetted by 0.5 ml co-cultivation media (MS basal salts and vitamins, MS iron, zeatin 1 mg/L, sucrose 10 g/L, glucose 5 g/L, MES 2 g/L, acetosyringone 20 mg/L, silver nitrate 0.5 mg/L) with the adaxial side up. One side of the filter paper was covered, and the petri dish was sealed with parafilm. Approximately 10~20 explants were placed per petri dish. The explant and Agrobacterium were co-cultured for 4 days in low-illumination condition: PAR (photosynthetically active radiation) 40 μmol m−2 s−1 with 16/8 light/dark condition. The plate containing explants was covered with a steel tray in an incubator (PERVICAL® Scientific Chambers, Perry, IA). These conditions were chosen to increase infection and prevent embryo deterioration. The explants were then co-cultured at 22° C. in the dark for 3-6 days in growth chamber.
After co-culture, the explants were transferred onto SFR1 medium for shoot regeneration (Gamborg B5 basal salts and B5 vitamins, MS Iron 200×, sucrose 20 g/L, MES 1 g/L, timentin 150 mg/L, carbenicillin 150 mg/L, agar 7.5 g/L, lipoic acid-50 mM, BAP 1 mg/L). The SFR1 medium also contained a selection agent (i.e., spectinomycin 50-150 mg/L). The explants were allowed to culture on SFR1 media in the dark at 25° C. for 3-6 days, and then grown under light (16/8 light/dark) at 25° C. for 9-14 days. FIGS. 6A-D show formation of the primary shoots with GFP expression.
Different concentrations of TDZ in the infection medium were tested to assess if TDZ concentration impacts transformation (Experiment alias: SF-52-SP-24545, SF-66-SP-24545, SF-81-SP-24545; variety: F75400). The process of transformation with explants from 1-day imbibed seeds was as described above. TDZ was added in the infection medium during the infection process for 2-4 hours. A TDZ concentration of 3-10 mg/L was used.

[3] = tested on: sunflower explants; assay: Resistant frequencies with different concentration of spectinomycin in selection medium (Protocol V2); conditions: F75400
Procedure: Transformed sunflower explants was transferred onto regeneration media by inserting cotyledon with meristem region into solid medium with a selection agent. Hypocotyl was left untouching the medium. The hypocotyl was covered with sterilized matrix and put the jar in 22° C., 16/8 h light/dark. The regeneration step lasted for 7-14 days. Specifically, after co-culture, the mature seeds were placed on regeneration medium as follows: cotyledon/meristem region was inserted into solid medium with a selection agent (100 mg/L spectinomycin), the hypocotyl was left upside (the whole seeds were upside down); the container was covered with sterilized matrix (soil mixture) and placed in growth chamber for inducing shooting and rooting simultaneously under short time selection (7-14 days).
Selection medium with spectinomycin 100-800 mg/L was tested. The resistant plantlets are generated with normal shoots and roots, further confirmed by visualizing GFP. […] (Experiment alias: SF-23-SP-24545; variety: F75400).

[4] = tested on: sunflower explants; assay: Transformation frequency by selection system (aadA or ALS selectable marker); conditions: substance used as selection agent (aadA marker for spectinomycin, ALS marker for bensulfuron-methyl)
Excerpt: As the Examples indicate, multiple transgenic-shoot structures were induced from infected explant tissues. Then the explants were shortly selected on selection media with selection agent (7-14 days, Spectinomycin as selection agent) and transplanted into soil to allow shoot and root development under controlled conditions (in growth chamber). From multiple experiments, transgenic events were successfully generated with aadA or ALS as selectable markers (spectinomycin and bensulfuron-methyl as selection agents respectively). The transformation frequency (TF) is 8.2% for spectinomycin selection, and 3.6% for bensulfuron-methyl selection system.

[5] = tested on: sunflower cotyledon explants; assay: Shoot induction rate of cotyledon explants with different plant hormone (conventional process); conditions: conventional in vitro process
Procedure: The most efficient regeneration and transformation system reported using cotyledon as explants was evaluated.

[6] = TDZ 3 mg/L in infection medium, 65 explants
[7] = TDZ 4 mg/L in infection medium, 49 explants
[8] = TDZ 8 mg/L in infection medium, 42 explants
[9] = TDZ 10 mg/L in infection medium, 37 explants
[10] = spectinomycin 100 mg/L in selection medium, SF23A, 89 explants
[11] = spectinomycin 200 mg/L in selection medium, SF23B, 67 explants
[12] = spectinomycin 300 mg/L in selection medium, SF23C, 61 explants
[13] = spectinomycin 500 mg/L in selection medium, SF23D, 68 explants
[14] = spectinomycin 800 mg/L in selection medium, SF23E, 70 explants

For `O=C(Nc1ccccc1)Nc1cnns1` [TDZ, 1-phenyl-3-(1,2,3-thiadiazol-5-yl)urea], the No. resistant shoot [1] was 7, the “# of Resistant plants with GFP” value [1] was 5 and the “Rate of resistant plants with GFP (%)” value [1] was 7%. The Resistant shoot rate [1] was 10%, the “# of TaqMan Positive Events” value [2, 6] was 1 and the TF [2, 6] was 1.5%. For the same compound, the “# of TaqMan Positive Events” value [2, 7] was 4, the TF [2, 7] was 8.2% and the “# of TaqMan Positive Events” value [2, 8] was 3. The TF [2, 8] was 7.1%, the “# of TaqMan Positive Events” value [2, 9] was 1 and the TF [2, 9] was 2.7%. The “Effect on shoot induction rate and transformation efficiency” value ([2]; TDZ 3-10 mg/L in infection medium for 2-4 hours) was “significantly improve shoot induction rate and transformation efficiency”.
In the case of `CN[C@@H]1[C@H](O)[C@H](NC)[C@H]2O[C@@]3(O)C(=O)C[C@@H](C)O[C@H]3O[C@@H]2[C@H]1O` [Spectinomycin, spectinomycin], the “Generation of resistant shoots” value ([3]; all spectinomycin concentrations from 100 mg/L to 800 mg/L) is reported as “generated resistant shoots”, the “# of Resistant plants with GFP” value [3, 10] is reported as 10 and the “Rate of resistant plants with GFP (%)” value [3, 10] is reported as 11%. The “Rooting rate (%)” value [3, 10] was 66%, the “Shooting Rate (%)” value [3, 10] was 40% and the “# of Resistant plants with GFP” value [3, 11] was 6. For the same compound, the “Rate of resistant plants with GFP (%)” value [3, 11] was 9%, the “Rooting rate (%)” value [3, 11] was 36% and the “Shooting Rate (%)” value [3, 11] was 18%. For the same compound, the “# of Resistant plants with GFP” value [3, 12] was 2, the “Rate of resistant plants with GFP (%)” value [3, 12] was 3% and the “Rooting rate (%)” value [3, 12] was 30%. For the same compound, the “Shooting Rate (%)” value [3, 12] was 16%, the “# of Resistant plants with GFP” value [3, 13] was 2 and the “Rate of resistant plants with GFP (%)” value [3, 13] was 3%. For the same compound, the “Rooting rate (%)” value [3, 13] was 18%, the “Shooting Rate (%)” value [3, 13] was 10% and the “# of Resistant plants with GFP” value [3, 14] was 1. The “Rate of resistant plants with GFP (%)” value [3, 14] was 1%, the “Rooting rate (%)” value [3, 14] was 9% and the “Shooting Rate (%)” value [3, 14] was 9%. For the same compound, the “transformation frequency (TF)” value [4] was 8.2%.
For `c1ccc(CNc2ncnc3nc[nH]c23)cc1` [BAP, 6-benzylaminopurine], the No. resistant shoot [1] was 6, the “# of Resistant plants with GFP” value [1] was 5 and the “Rate of resistant plants with GFP (%)” value [1] was 7%. The Resistant shoot rate [1] was 8% and the “Shoot induction rate (%)” value [5] was 2%.
With `COC(=O)c1ccccc1CS(=O)(=O)NC(=O)Nc1nc(OC)cc(OC)n1` [bensulfuron-methyl] the “transformation frequency (TF)” value [4] was 3.6%.
